Measurements as given in paper PMC8307938, “The Lysozyme Inhibitor Thionine Acetate Is Also an Inhibitor of the Soluble Lytic Transglycosylase Slt35 from Escherichia coli” (Molecules, 2021).

Biological target: T1, Slt35 (Escherichia coli, UniProt P41052)
T1 construct: gene mltB; N-terminal His-tag
T1 sequence (P41052 19-361): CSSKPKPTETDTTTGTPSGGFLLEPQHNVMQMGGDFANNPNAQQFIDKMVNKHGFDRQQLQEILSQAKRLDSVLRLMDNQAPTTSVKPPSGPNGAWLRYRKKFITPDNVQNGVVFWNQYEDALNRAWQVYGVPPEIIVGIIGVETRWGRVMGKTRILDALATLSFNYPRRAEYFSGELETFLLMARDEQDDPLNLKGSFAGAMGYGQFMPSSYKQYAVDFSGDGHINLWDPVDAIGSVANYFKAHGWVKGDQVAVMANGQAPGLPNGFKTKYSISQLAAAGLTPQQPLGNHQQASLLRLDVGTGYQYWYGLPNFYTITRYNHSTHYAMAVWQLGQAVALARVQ
Test: saturation transfer difference NMR ([…] compound, […] Slt35; weak; no inhibition up to […])
Format: binding

With `OC[C@H]1NC[C@H](O)[C@@H](O)[C@@H]1O` [1-deoxynojirimycin] the “saturation transfer difference NMR (5 mM compound, 20 μM Slt35); weak; no inhibit” value was “weak enhancement of signals from 1-deoxynojirimycin on selective excitation of Slt35 (Figure S1), suggesting that this compound is capable of binding”.
